Laboratory results reported in patent publication US20110021471A1, “REDUCING Abeta42 LEVELS AND Abeta AGGREGATION” (priority 2007, published 2011).
Read-outs that look alike come from different tables or passages of the source.

How the values were obtained:
[1] = test system: H4Bri-C99 (CTF-3)
Experimental: FIG. 6. […] Parent GSMs and biotin tagged photoactivatable GSMs were evaluated for their effects on Aβ secreted from H4Bri-C99 (CTF-3). Cells were treated with compounds for 6 hours and Aβ measured by ELISA. […] Changes in Aβ (percent control)±s.e.m., n=3.
(§1) Photoaffinity labelling. All experiments used the following general protocol. Samples (recombinant or synthetic peptides, cell lysates and membrane preparations) were exposed in borosilicate test tubes to ultraviolet light (350 nm) in a Rayonet Photoreactor R100 (RPR-3500 lamps, Southern New England Ultra Violet Company) in a cold room (4° C.) for 30 minutes or as otherwise noted. Crosslinked samples were analyzed by ELISA for biotin incorporation, or analyzed directly by SDS-PAGE (Criterion-XT, Bio-Rad), or after precipitation with streptavidin ultralink plus beads (Pierce). After immunblotting, proteins were detected using chemiluminesence (ECL Plus, GEHealthcare) or near-infrared fluorescence (LiCor Odyssey). Full-length APP and APP CTFs (CTF83, CTF99) were detected with CT20, a rabbit polyclonal antibody against the C-terminus of APP. Biotin was detected with an affinity-purified rabbit polyclonal antibody (Bethyl). Cell-based screens for amyloid-β modulation. Human H4 neuroglioma cells (American Type Culture Collection, ATCC) expressing wild-type APP695 protein or CTF105 fused to secreted alkaline phosphatase which is efficiently processed to APP CTFs (CTF83, CTF99) and produce high levels of amyloid-β, were used for the cell-based screens as previously described. Cells were incubated for 5-6 hours in the presence of the various compounds in Opti-Mem culture medium containing 1% fetal bovine serum. Compounds were dissolved in dimethylsulphoxide (DMSO; 0.5% final concentration) and diluted 200-fold. Media was analyzed for various amyloid-β species (40, 42 and total) using ELISAs as described herein. The EC50 values for changes in amyloid-β species were calculated by fitting sigmoid dose-response curves using nonlinear regression in Prism (GraphPad) and are shown as values±s.e.m. Statistical analysis. Data are presented as either percentage control or mean±s.e.m. Results were analyzed using Prism (Graph Pad) with t-tests or one-way analysis of variance analyses (ANOVAs) with Dunnett's post-hoc correction for comparison of multiple samples to a control. Statistical significance is shown as P,0.05 (one asterisk), P,0.01 (two asterisks) or P,0.001 (three asterisks).

[2] = test system: Human H4 neuroglioma cells expressing wild-type APP695 protein or CTF105; assay: Cell-based screens for amyloid-β modulation (H4 cells, ELISA); conditions: for Aβ42 levels: H4 cells expressing APP
Text: Photoaffinity labelling. All experiments used the following general protocol. […] Cell-based screens for amyloid-β modulation. […] Statistical analysis.

[3] = target: T1, γ-secretase (Homo sapiens, UniProt P49768); assay: GSM activity of compounds that bind Aβ or Aβ amyloid (cell-based or cell-free γ-secretase assays, FIG. 12); conditions: two doses (10 and 100 μM)
Experimental: A literature search was performed to identify compounds reported to bind to the Aβ peptide directly or amyloid. These candidates were initially tested in cell-based assays or cell-free in vitro γ-secretase assays at two doses (10 and 100 μM).
Finally, X-34 was tested for its ability to modulate Aβ42 amounts in an APP transgenic mouse (Tg2576).

[4] = target: T2, APP(C100)-Flag (Homo sapiens, UniProt P05067); assay: Photoaffinity labelling of APP(C100)-Flag and competition; type: binding; conditions: for competition of Fen-B labeling of C100Flag: Fen-B 10 μM, C100Flag 1 μM, competitor 100 μM
T2 construct: APP(C100)-Flag, comprising the 99 C-terminal residues of APP plus a methionine at the N-terminus; added methionine (N)
T2 sequence (P05067 672-770 limits assumed): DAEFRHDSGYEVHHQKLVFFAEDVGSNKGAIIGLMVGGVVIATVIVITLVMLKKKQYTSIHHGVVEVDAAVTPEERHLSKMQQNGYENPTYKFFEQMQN
Experimental: (§2) FIG. 1. […] The top panel is for anti-biotin staining; the middle panel is for anti-FLAG staining; and the bottom panel is an overlay of anti-biotin (red and anti-Flag green, LiCor Odyssey imaging). (E) Same samples as in D, but analyzed using an ELISA. Following crosslinking, C100Flag and N100 Flag were captured using anti-FLAG plate, and biotin incorporation was measured using streptavidin-HRP. […] Fen-B (50 μM) was crosslinked to Aβ (10 μM). Biotin labeling was measured following capture with an anti-Aβ1-16 antibody and detection with streptavidin-HRP.
as §1
The ability of a purified, recombinant Flag-tagged γ-secretase substrate derived from APP (APP(C100)-Flag, comprising the 99 C-terminal residues of APP plus a methionine at the N-terminus) to be labeled by Fen-B and Flurbi-BpB was tested.

[5] = target: T1, γ-secretase; assay: Cell-free in vitro γ-secretase assay; type: biochemical; conditions: for Aβ40 in cell-free γ-secretase assay / total Aβ production in cell-free γ-secretase assay: increasing doses
Experimental: FIG. 5. Fenofibrate-Biotin (Fen-B) is an Aβ42 raising GSM that labels cell-derived APP-CTF. (A) The effects of fenofibrate and fenofibrate-biotin (Fen-B) on Aβ production were investigated in a cell-free in vitro γ-secretase assay performed as described in the methods. […] Percent control Aβ species±s.e.m., n=2. (B) Fen-B labels APP-CTFs from cells lysates. CHAPSO solubilized membrane fractions from H4 APP-CTF-105-AP cells were irradiated (350 nm) in the presence of Fen-B (50 μM) for 30 minutes. Biotinylated material was precipitated with streptavidin overnight (SAv). Beads were washed (3×) and then incubated with XT sample buffer, heated to 95° C., run on 12% Criterion XT gels, and transferred to nitrocellulose membranes. Blots were probed for biotin (Bethyl) and APP (CT20). Excess drug (Fen-B) and unlableled APP-CTF is detected in the flow-through from the beads (unbound lane). Biotin bound to streptavdin (SAv) is detected by the anti-biotin antibody. APP-CTF-83 is pulled down in lane 2 and is reactive with anti-biotin and anti-APP (CT20).
Congo red (CR) and chrysamine G (CG), two of the most well characterized amyloid-β dyes, act as GSMs in cell-free γ-secretase assays.

[6] = test system: H4 APPwt cells; assay: Immunoprecipitation-mass spectrometry of media from H4 APPwt cells; type: cell-based, human
Experimental: FIG. 14. Amyloid binding compounds alter the cleavage of Aβ similar to other established γ-secretase modulators Immunoprecipitation-mass spectrometry studies were conducted on media from H4 APPwt cells grown in the presence of test compounds for 16 hours. Conditions were: control (DMSO, 0.5%), sulindac sulfide (SS; 25 μM), chrysamine g (CG; 25 μM), and X-34 (25 μM). SS was included as a control GSM known to reduce Aβ42 and increase Aβ38. Spectra shown are representative of two experiments with 2-3 replicates each. Identified Aβ peptides based on calculated mass (m/z) are indicated above the peaks.

[7] = target: amyloid-β peptides (Aβ1-40, Aβ1-36, Aβ1-28, Flag-Aβ25-36) (Homo sapiens, UniProt P05067); assay: Photoaffinity labelling of amyloid-β peptides; type: binding
Experimental: as §2, §1
Because the putative binding region of GSMs is also found in full-length APP, labeling of both APP fragments in cells was assayed.

[8] = target: T3, APP-CTF (Homo sapiens, UniProt P05067); assay: Photoaffinity labelling of APP and APP CTF in H4 cell membrane fractions and competition; type: binding; conditions: for competition of APP-CTF labeling by Fen-B and Flurbi-BpB: photoprobe 25 μM, competitor 200 μM
T3 construct: this protein was designated α-secretase-derived APP CTF (CTF83) on the basis of molecular weight; expressed in transfected cells
T3 sequence (P05067 688-770 limits assumed): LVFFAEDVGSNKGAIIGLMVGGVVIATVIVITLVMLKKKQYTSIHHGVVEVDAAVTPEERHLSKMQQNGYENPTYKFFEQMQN
Experimental: Photoaffinity labelling. All experiments used the following general protocol. Samples (recombinant or synthetic peptides, cell lysates and membrane preparations) were exposed in borosilicate test tubes to ultraviolet light (350 nm) in a Rayonet Photoreactor R100 (RPR-3500 lamps, Southern New England Ultra Violet Company) in a cold room (4° C.) for 30 minutes or as otherwise noted. Crosslinked samples were analyzed by ELISA for biotin incorporation, or analyzed directly by SDS-PAGE (Criterion-XT, Bio-Rad), or after precipitation with streptavidin ultralink plus beads (Pierce). After immunblotting, proteins were detected using chemiluminesence (ECL Plus, GEHealthcare) or near-infrared fluorescence (LiCor Odyssey). Full-length APP and APP CTFs (CTF83, CTF99) were detected with CT20, a rabbit polyclonal antibody against the C-terminus of APP. Biotin was detected with an affinity-purified rabbit polyclonal antibody (Bethyl). Cell-based screens for amyloid-β modulation.

For CC(C)OC(=O)C(C)(C)Oc1ccc(C(=O)c2ccc(Cl)cc2)cc1 [fenofibrate], the Aβ42 increase ([1]; 33 μM, 6 hours) was 300% and the “Toxicity, based on cell morphology and XTT assay” value ([1]; human, 6 h) was “noted at higher concentrations (150, 200 μM)”.
With O=C1NC(=O)c2cc(Nc3ccccc3)c(Nc3ccccc3)cc21 [DAPH, 4,5-dianilinophthalimide] the Aβ42 levels [2] was “selectively increase” and the GSM activity [3] was “Aβ42-raising”.
With COc1ccc2cc([C@H](C)C(=O)O)ccc2c1 [naproxen] the “competition of Fen-B labeling of C100Flag” value (“competition … of C100Flag” below) [4] was “did not compete”.
With NH2-FEGKF-CONH2 [I1] the “total amyloid-β amounts” value [2] was “without lowering total amyloid-β amounts” and the Aβ42 levels [2] was “elevated Aβ42 production”.
COc1ccc2[nH]cc(CCNC(C)=O)c2c1 [melatonin] was tested, and the GSM activity [3] was “did not act as GSMs”.
For Clc1ccc(C(c2ccc(Cl)cc2)n2cc[n+](CC(OCc3ccc(Cl)cc3Cl)c3ccc(Cl)cc3Cl)c2)cc1 (stereo not drawn) [calmidazolium], the GSM activity [3] was “Aβ42-raising”.
In the case of O=C(O)c1cc(/N=N/c2ccc(-c3ccc(/N=N/c4ccc(O)c(C(=O)O)c4)cc3)cc2)ccc1O [Chrysamine G], the Aβ42 levels [2] is reported as “decrease”, the “Aβ42 in cell-free γ-secretase assay” value [5] is reported as “lowered Aβ42 selectively” and the “Aβ40 in cell-free γ-secretase assay” value [5] is reported as “lowered Aβ40 at higher doses”. For the same compound, the “total Aβ production in cell-free γ-secretase assay” value [5] was “without decreasing total Aβ production”, the “Aβ42 in cell-free γ-secretase assay” value ([5]; listed as CG) was “lowered Aβ42 levels” and the “shorter amyloid-β (IP-MS)” value [6] was “increased amounts of shorter amyloid-β”. The “Aβ33 levels (IP-MS)” value ([6]; 25 μM, 16 hours) was “raise Aβ33 levels more effectively than SS” and the “levels of Aβ42 (IP-MS)” value ([6]; 25 μM, 16 hours) was “consistently decrease levels of Aβ42”.
“Aβ28-36: synthetic peptide of the putative GSM binding region (KGAIIGLMV; Amyloid-beta protein 42; UniProt P05067 699-707, looked up, fragment)” was tested, and the “competition for labeling of FLAG-Aβ-25-36 by Fen-B or Flurbi-BpB” value ([7]; competitor 100 μM, FLAG-Aβ-25-36 10 μM) was “competes” and the “competition of APP-CTF labeling by Fen-B and Flurbi-BpB” value [8] was “decreases labeling of APP-CTF”.
Nc1c(/N=N/c2ccc(-c3ccc(/N=N/c4cc(S(=O)(=O)O)c5ccccc5c4N)cc3)cc2)cc(S(=O)(=O)O)c2ccccc12 [Congo red] was tested, and the “Aβ42 in cell-free γ-secretase assay” value [5] was “lowered Aβ42 selectively”, the “total Aβ production in cell-free γ-secretase assay” value [5] was “without decreasing total Aβ production” and the “Aβ42 in cell-free γ-secretase assay” value ([5]; listed as CR) was “lowered Aβ42 levels”.
With CNc1ccc(-c2nc3ccccc3s2)cc1 [BTA-1] the GSM activity [3] was “did not act as GSMs”.
O=C(O)CCCC[C@@H]1SC[C@@H]2NC(=O)N[C@@H]21 [Biotin] was tested, and the Aβ levels ([1]; 6 hours) was “no effect”.
CSc1ccc(/C=C2/C(C)=C(CC(=O)O)c3cc(F)ccc32)cc1 [sulindac sulfide] was tested, and the “Aβ42 in cell-free γ-secretase assay” value [5] was “lowered Aβ42 levels”, the “Aβ40 in cell-free γ-secretase assay” value [5] was “lowered Aβ40 at higher doses” and the “total Aβ production in cell-free γ-secretase assay” value [5] was “without decreasing total Aβ production”. For the same compound, the “competition of APP-CTF labeling by Fen-B and Flurbi-BpB” value [8] was “decreases labeling of APP-CTF”, the “competition of FL-APP and APP CTF labeling by Fen-B and Flurbi-BpB” value ([8]; photoprobes 50 μM, data not shown) was “prevents labeling of FL-APP and APP CTF” and the “levels of Aβ42 (IP-MS)” value ([6]; 25 μM, 16 hours) was “consistently decrease levels of Aβ42”.
O=C(CCCC[C@H]1SC[C@H]2NC(=O)N[C@H]21)NCCNC(=O)COc1ccc(C(=O)c2ccccc2)cc1 [BpB, N-(2-(2-(4-benzoylphenoxy)acetamido)ethyl)-5-((3aR,4R,6aS)-2-oxohexahydro-1Hthieno[3,4-d]imidazol-4-yl)pentanamide] was tested, and the “Aβ42 (direction of change)” value ([1]; 6 hours) was “increased Aβ42” and the “labeling of Aβ1-36” value [7] was “minor labelling”.
For CC1=C(CC(=O)O)c2cc(F)ccc2/C1=C\c1ccc(S(C)(=O)=O)cc1 [sulindac sulfone], the “competition … of C100Flag” value [4] was “not”.
For O=C(c1ccccc1)c1ccccc1 [benzophenone], the “Aβ42 (direction of change)” value ([1]; 6 hours) was “increased Aβ42”.
O=S(=O)(O)c1cccc2c(-c3ccc(Nc4ccccc4)c4c(S(=O)(=O)O)cccc34)ccc(Nc3ccccc3)c12 [Bis-ANS, 4,49-dianilino-1,19-binaphthyl-5,59-disulphonic acid] was tested, and the Aβ42 levels [2] was “decrease” and the GSM activity [3] was “Aβ42-lowering”.
CC(=O)Oc1ccccc1C(=O)O [aspirin] was tested, and the “competition … of C100Flag” value [4] was “did not compete”.
CC(C(=O)O)c1ccc(-c2ccc(NC(=O)COc3ccc(C(=O)c4ccc(OCC(=O)NCCNC(=O)CCCC[C@H]5SC[C@H]6NC(=O)N[C@H]65)cc4)cc3)cc2)c(F)c1 (stereo in doubt) [Flurbi-BpB, 2-(2-fluoro-4′-(2-(4-(4-(2-oxo-2-(2-(5-((3aR,4R,6aS)-2-oxohexahydro-1H-thieno[3,4-d]imidazol-4 yl)pentanamido)ethylamino)ethoxy)benzoyl)phenoxy)acetamido)biphenyl-4-yl)propanoic acid] was tested, and the “Aβ42 (direction of change)” value ([1]; 6 hours) was “lowered Aβ42”, the “labeling of APP(C100)-Flag” value [4] was “label a recombinant APP c-secretase substrate (APP(C100)-Flag) with similar potency” and the “labeling of Aβ1-36” value [7] was “labeled”. The “labeling of Flag-tagged Aβ25-36” value [7] was “preferentially label” and the “labeling of full-length APP and APP CTFs” value ([8]; microsomal membrane fractions from H4 cells expressing wild-type APP) was “labeled full-length APP and APP CTFs”.
